Data set [1] can be described thus: In Vitro Microsome Stability Assay (human). The format is in vitro ADME. The note with it: human, 30 min, NADPH. The gist of the method: (§1)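 Species liver microsomes in potassium phosphate buffer were preincubated at 37 °C for 3–5 min with test compound (added from 0.25 mM DMSO stock), then started with NADPH. Samples at 0 and 30 min were quenched with acetonitrile containing internal standard and analysed by LC-MS/MS; % remaining at 30 min used analyte/IS AUC ratios relative to t=0.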

Data set [2] deals with full length IL-2 (amino acids 1-153) fused to Gaussia Luciferase. Description: Dox Induced IL2-FL-Gluc Assay. The format is cell-based. The settings on record: 24 hr, 293FRT/TO; read-out: 24 hr Dox Inducible IL2FLGluc 293FRT/TO: Mean IC50. Put shortly: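 Compounds in DMSO/media with doxycycline were added to cells plated the previous day and incubated at 37° C, 5% CO2. Cells: stable Flp-In 293 T-REx line, Dox-regulated expression of IL-2 (aa 1-153) fused at its C-terminus to Gaussia luciferase.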

Data set [3] in a line: In Vitro Microsome Stability Assay (rat). The note with it: rat, 30 min, NADPH. The format is in vitro ADME. Put shortly:
as §1

In data set [4] the test system is PD1 signal sequence plus 10 amino acids fused to Gaussia Luciferase (PD1-ss+10aa/Gaussia Luciferase). Nature of the data set: Dox Induced PD1-ss-Gluc Assay. The format is cell-based. The note with it: 24 hr, 293FRT/TO; read-out: 24 hr Dox Inducible PD1ssGluc 293FRT/TO: Mean IC50. Put shortly: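 Compound dilutions in DMSO/media containing doxycycline were applied to a stable, inducible 293 T-REx line carrying the luciferase fusion, then incubated at 37 °C, 5% CO2. Where stereochemistry is not drawn, values relate to isomer mixtures.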

A short description of data set [5]: In Vitro Microsome Stability Assay (mouse). The format is in vitro ADME. The note with it: mouse, 30 min, NADPH. The gist of the method:
as §1

Data set [6] has as its system full length TNFα (amino acids 1-233) fused to Gaussia Luciferase. Description: Dox Induced TNFα-FL-Gluc Assay. The data set is classed as cell-based. The note with it: 24 hr, 293FRT/TO; read-out: 24 hr Dox Inducible TNFaFLGluc 293FRT/TO: Mean IC50. The gist of the method:
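Compounds diluted in DMSO/medium with doxycycline were incubated at 37° C, 5% CO2 with 293 T-REx cells stably carrying a Tet-regulated TNFα(1-233)-Gaussia luciferase construct. Data for structures drawn without stereochemistry refer to stereoisomer mixtures.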

A short description of data set [7]: In Vitro Microsome Stability Assay (monkey). The format is in vitro ADME. The settings on record: monkey, 30 min, NADPH. Put shortly: as §1
Data set [8] deals with full length PD1 (amino acids 1-288) fused to Firefly Luciferase. Nature of the data set: Dox Induced PD1-FL-Gluc Assay. The data set is classed as cell-based. The note with it: 24 hr, 293FRT/TO; read-out: 24 hr Dox Inducible PD1FLFluc 293FRT/TO: Mean IC50. An excerpt:
FIp-In 293 T-REx™ cells were transfected with pcDNA™5/FRT/TO plasmid inserted with cDNA encoding Firefly Luciferase fused to the 3′ end of cDNA encoding full length PD1 (amino acids 1-288). Transfected cells were selected for resistance to the selectable markers Hygromycin and Blasticidin to create a stable cell line that contained the PD1-FL/Firefly Luciferase cDNA insert whose expression was regulated under the T-REx™ system. The day before assay, cells were trypsinized and plated in 384-well tissue culture plates. The next day, compound dilutions in DMSO/media containing doxycycline were added to the wells and incubated at 37° C., 5% CO2.
For chemical structures that include one or more stereoisomers, but are illustrated without indicating stereochemistry, the assay data refers to a mixture of stereoisomers.

The subject of data set [9] is multiple myeloma cell line U266B1. Nature of the data set: U266 Cell Viability Assay. The format is cell-based, human. The settings on record: Homo sapiens, U-266; 48 hr, U266; read-out: 48 hr U266 Viability Celltiter-Glo: Mean EC50. Put shortly: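 Viability was measured by CellTiter-Glo luminescence after 48 h compound exposure at 37° C, 5% CO2. The cells were U266B1 multiple myeloma cells grown in RPMI 1640 plus 10% FBS. Where stereochemistry is not shown, values apply to the stereoisomer mixture.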
(In general: Cellular ATP, detected with luciferase, serves as a proxy for viable cell number.)

Data set [10] relates to multiple myeloma cell line NCl-H929. Description: H929 Cell Viability Assay. The format is cell-based, human. The note with it: Homo sapiens, NCI-H929, 48 h, H929, read-out: 48 hr H929 Viability Celltiter-Glo: Mean EC50. Put shortly:
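Viability was determined by CellTiter-Glo luminescence after a 48 h, 37 °C exposure of NCI-H929 cells to serial compound dilutions in medium containing 10% FBS. Where stereochemistry is not shown, values refer to a mix of stereoisomers.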

What is called EC50 is the midpoint of the concentration-response curve. Take `C=C1CN(S(=O)(=O)c2ccc(C)cc2)CCCN(Cc2ccccc2)CCCN(S(=O)(=O)c2ccc(C)cc2)C1` [A1]: in [1], the “Liver Microsome Stability-% Left after 30 min w/ NADPH (%) Human” value (from here on “Liver Microsome Stability-% Left … (%) Human”) was determined as 0.18%. Further, the IC50 is 1170 nM in data set [2], 1030 nM in data set [4], more than 25000 nM in data set [6] and 1400 nM in data set [8]. Moreover, the “Liver Microsome Stability-% Left after 30 min w/ NADPH (%) Rat” value (“Liver Microsome Stability-% Left … (%) Rat” for short) in data set [3] came to 0.12%. The “Liver Microsome Stability-% Left after 30 min w/ NADPH (%) Mouse” value (shortened to “Liver Microsome Stability-% Left … (%) Mouse”) in data set [5] was determined as 0.21%. For the same molecule, the “Liver Microsome Stability-% Left after 30 min w/ NADPH (%) Monkey” value (from here on “Liver Microsome Stability-% Left … (%) Monkey”) in data set [7] was 0.18%. For the same molecule, the EC50 in [9] and in data set [10] was more than 25000 nM each time.

For the molecule `C=C1CN(S(=O)(=O)c2ccc(N(C)C)cc2)CCCN(CC2CCCCC2)CCCN(S(=O)(=O)N2CCc3ccccc3C2)C1` [A50, 4-{[9-(cyclohexylmethyl)-3-methylidene-5-(1,2,3,4-tetrahydroisoquinoline-2-sulfonyl)-1,5,9-triazacyclododecan-1-yl]sulfonyl}-N,N-dimethylaniline], the “Liver Microsome Stability-% Left … (%) Human” value in [1] came out at 1.32%. Besides, the IC50 came out at 57 nM in [2], 22.2 nM in [4], 661 nM in data set [6] and 74.1 nM in [8]. In addition, in data set [3], the “Liver Microsome Stability-% Left … (%) Rat” value is recorded as 3.6%. In addition, the “Liver Microsome Stability-% Left … (%) Mouse” value in data set [5] turned out to be 70.1%. The “Liver Microsome Stability-% Left … (%) Monkey” value in data set [7] is recorded as 0.79%. Besides, the EC50 in [9] was found to be 6540 nM; in data set [10] it was 1010 nM.

For the molecule `C=C1CN(S(=O)(=O)c2ccc(N(C)C)cc2)CCCN(CC2CCCCC2)CCCN(S(=O)(=O)N2CCN(c3ccccc3)CC2)C1` [A36, 4-{[9-(cyclohexylmethyl)-3-methylidene-5-[(4-phenylpiperazin-1-yl)sulfonyl]-1,5,9-triazacyclododecan-1-yl]sulfonyl}-N,N-dimethylaniline], the “Liver Microsome Stability-% Left … (%) Human” value in data set [1] turned out to be 6.69%. The IC50 is 301 nM in data set [2], 118 nM in data set [4], more than 21800 nM in [6] and 319 nM in data set [8]. Besides, the “Liver Microsome Stability-% Left … (%) Rat” value in data set [3] came to 0.94%. The “Liver Microsome Stability-% Left … (%) Mouse” value in [5] is 1.85%. The “Liver Microsome Stability-% Left … (%) Monkey” value in [7] stood at 1.54%. The 50% effective concentration (EC50) is more than 25000 nM in data set [9] and more than 15400 nM in data set [10].

As to `C=C1CN(S(=O)(=O)c2ccc(N(C)C)cc2)CCCN(CC2CCCCC2)CCCN(S(=O)(=O)N2CC=C(c3ccc(Cl)cc3)CC2)C1` [A74, 4-[(5-{[4-(4-chlorophenyl)-1,2,3,6-tetrahydropyridin-1-yl]sulfonyl}-9-(cyclohexylmethyl)-3-methylidene-1,5,9-triazacyclododecan-1-yl)sulfonyl]-N,N-dimethylaniline], in data set [1], the “Liver Microsome Stability-% Left … (%) Human” value was 56.3%. Further, the IC50 in data set [2] is 248 nM; in [4], 77.4 nM; in [6] it was more than 25000 nM; in [8], 258 nM. In addition, in data set [3], the “Liver Microsome Stability-% Left … (%) Rat” value is on record as 55.7%. Also, the “Liver Microsome Stability-% Left … (%) Mouse” value in [5] was found to be 53.7%. Besides, in [7], the “Liver Microsome Stability-% Left … (%) Monkey” value was 60.6%. Besides, the EC50 in data set [9] and in [10] was more than 25000 nM in each case.

As to `CC1CCN(S(=O)(=O)N2CCCN(CC3CCCCC3)CCCN(S(=O)(=O)c3ccc(N(C)C)cc3)CC3(CC3)C2)CC1` [A22, 4-{[9-(cyclohexylmethyl)-13-[(4-methylpiperidin-1-yl)sulfonyl]-5,9,13-triazaspiro[2.11]tetradecan-5-yl]sulfonyl}-N,N-dimethylaniline], the “Liver Microsome Stability-% Left … (%) Human” value in data set [1] is listed as 0.16%. Moreover, the IC50 came out at 370 nM in data set [2], 156 nM in data set [4], 6380 nM in data set [6] and 404 nM in data set [8]. For the same molecule, the “Liver Microsome Stability-% Left … (%) Rat” value in data set [3] was determined as 0.4%. Besides, the “Liver Microsome Stability-% Left … (%) Mouse” value in data set [5] came out at 0.12%. Besides, the “Liver Microsome Stability-% Left … (%) Monkey” value in data set [7] is recorded as 0.11%. Moreover, the half-maximal effective concentration (EC50) is more than 25000 nM in [9] and 6670 nM in data set [10].

On to `Cc1ccc(S(=O)(=O)N2CCCN(CC3CCCCC3)CCCN(S(=O)(=O)c3ccc(N(C)C)cc3)CCC2)cc1` [A14, 4-((5-(cyclohexylmethyl)-9-tosyl-1,5,9-triazacyclododecan-1-yl)sulfonyl)-N,N-dimethylaniline], for which the “Liver Microsome Stability-% Left … (%) Human” value in data set [1] came out at 0.08%. Besides, the IC50 in data set [2] was 1160 nM; in data set [4], 640 nM; in [6] it was more than 25000 nM; in [8], 1230 nM. The “Liver Microsome Stability-% Left … (%) Rat” value in data set [3] was 1.13%. For the same molecule, the “Liver Microsome Stability-% Left … (%) Mouse” value in [5] worked out at 5.39%. In addition, the “Liver Microsome Stability-% Left … (%) Monkey” value in [7] was determined as 1.4%. The EC50 in data set [9] and in data set [10] was more than 25000 nM throughout.

On to `CN(C)c1ccc(S(=O)(=O)N2CCCN(CC3CCCCC3)CCCN(S(=O)(=O)N3CCC(c4ccccc4)CC3)C/C(=N/O)C2)cc1` [A75, 9-(cyclohexylmethyl)-1-((4-(dimethylamino)phenyl)sulfonyl)-5-((4-phenylpiperidin-1-yl)sulfonyl)-1,5,9-triazacyclododecan-3-one oxime], for which, in [1], the “Liver Microsome Stability-% Left … (%) Human” value turned out to be 3.08%. Besides, the IC50 amounted to 233 nM in [2], 104 nM in data set [4], 3780 nM in data set [6] and 256 nM in [8]. In addition, in data set [3], the “Liver Microsome Stability-% Left … (%) Rat” value is 7.54%. In addition, the “Liver Microsome Stability-% Left … (%) Mouse” value in data set [5] was determined as 2.75%. In [7], the “Liver Microsome Stability-% Left … (%) Monkey” value was 0.28%. In addition, the EC50 in [9] was more than 25000 nM; in [10], 3030 nM.

Source of the values: US11578055B2, “Triazacyclododecansulfonamide (“TCD”)-based protein secretion inhibitors” (KEZAR LIFE SCIENCES, priority 2018, dated 2023).
